What was measured:
[1] = molecular target: Bcl-2-like protein 1 (Homo sapiens, UniProt Q07817); test: (§1) BCL-XL TR-FRET Assay: The following assay concentrations and times were used: 10.5 ng BCL-XL, 5 μl of 1:100 anti-His Tb-labeled donor, 5 μl of 1:100 Dye-labeled acceptor, 5 μl of 1:80 BCL-XL Peptide Ligand, and 2 μl of test compound, with 60 min incubation time. The results of the assay were read using a Clariostar (BMG Labtech) plate reader with the following parameters: TR FRET, 340ex/620 and 665em; 60 μsec Delay; and 500 μsec integration.
Bcl-2-like protein 1, sequence (Q07817 whole entry): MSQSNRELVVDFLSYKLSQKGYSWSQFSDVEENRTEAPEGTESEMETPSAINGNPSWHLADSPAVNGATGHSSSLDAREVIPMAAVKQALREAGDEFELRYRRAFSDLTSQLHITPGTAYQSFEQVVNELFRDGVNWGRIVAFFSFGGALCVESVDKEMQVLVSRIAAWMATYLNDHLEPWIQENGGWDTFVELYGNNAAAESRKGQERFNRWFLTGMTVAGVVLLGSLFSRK

[2] = molecular target: Apoptosis regulator Bcl-2 (Homo sapiens, UniProt P10415); test: as §1, with “BCL-2 TR-FRET” for “BCL-XL TR-FRET”, “used: 3” for “used: 10.5”, “ng BCL-2,” for “ng BCL-XL,”, “of 1:40 BCL-2” for “of 1:80 BCL-XL”, “2 ul” for “2 μl”
Apoptosis regulator Bcl-2, sequence (P10415 whole entry): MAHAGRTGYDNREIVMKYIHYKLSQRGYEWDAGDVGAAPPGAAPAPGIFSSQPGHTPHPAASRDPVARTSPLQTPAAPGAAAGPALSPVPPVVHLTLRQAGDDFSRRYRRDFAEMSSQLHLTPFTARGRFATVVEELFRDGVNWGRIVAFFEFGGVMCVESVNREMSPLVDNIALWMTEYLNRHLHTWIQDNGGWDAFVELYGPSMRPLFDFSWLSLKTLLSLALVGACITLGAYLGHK

Compound	IC50 [1] [µM]	IC50 [2] [µM]
O=C(c1cc(-c2cc3c(cc2C(=O)N2Cc4ccccc4C[C@H]2CN2CCOCC2)OCO3)n2c1CCCC2)N(Cc1ccccc1F)c1ccc(O)cc1	< 2	< 0.005
O=C(c1cc(-c2cc3c(cc2C(=O)N2Cc4ccccc4C[C@H]2CN2CCOCC2)OCO3)n2c1CCCC2)N(Cc1ccc(F)cc1)c1ccc(O)cc1	> 4	

Reference: ChEMBL document CHEMBL5729797, “Compounds having tetrahydroindolizine-1-carboxamide as BCL-2 inhibitors” (2023)
